Measurements as given in PubChem BioAssay (NCI).
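Values below derive from 48-hour exposures of cells grown in 96-well plates, with endpoints linearly interpolated between the two concentrations bracketing the appropriate inhibition level. At the GI50, growth is halved. TGI: concentration producing complete growth inhibition.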

Legend:
Experiment in all cases: NCI tumour cell line growth inhibition, 48 h
[1] = test system: MDA-MB-231 breast
[2] = test system: UACC-62 melanoma
[3] = test system: K-562 leukemia
[4] = test system: MDA-MB-435
[5] = test system: M14 melanoma
[6] = test system: NCI-H226 lung
[7] = test system: KM12 colon
[8] = test system: MALME-3M melanoma
[9] = test system: OVCAR-3 ovarian
[10] = test system: NCI-H23 lung
[11] = test system: OVCAR-8 ovarian
[12] = test system: SF-539 CNS
[13] = test system: BT-549 breast
[14] = test system: ACHN renal
[15] = test system: DU-145 prostate
[16] = test system: UACC-257 melanoma
[17] = test system: T-47D breast
[18] = test system: RXF 393 renal
[19] = test system: SNB-19 CNS
[20] = test system: SN12C renal
[21] = test system: SR leukemia
[22] = test system: OVCAR-4 ovarian
[23] = test system: SK-MEL-2 melanoma
[24] = test system: A498 renal
[25] = test system: TK-10 renal
[26] = test system: A549 NSCLC
[27] = test system: HOP-62 NSCLC
[28] = test system: PC-3 prostate
[29] = test system: EKVX NSCLC
[30] = test system: HCT-15 colon
[31] = test system: NCI/ADR-RES ovarian
[32] = test system: SK-MEL-28 melanoma
[33] = test system: HOP-92 NSCLC
[34] = test system: HCC-2998 colon
[35] = test system: HCT-116 colon
[36] = test system: CAKI-1 renal
[37] = test system: MOLT-4 leukemia
[38] = test system: 786-0 renal
[39] = test system: SK-OV-3 ovarian
[40] = test system: OVCAR-5 ovarian
[41] = test system: SNB-75 CNS
[42] = test system: SK-MEL-5 melanoma
[43] = test system: MCF7 breast
[44] = test system: HL-60(TB) leukemia
[45] = test system: SF-295 CNS
[46] = test system: SF-268 CNS

Oc1ccc(CCNc2nc3ccccc3c3[nH]c4ccccc4c23)cc1
GI50 [1]: 1360 nM | TGI [1]: 2970 nM | GI50 [2]: 1660 nM | TGI [2]: 3040 nM | GI50 [3]: 1910 nM | TGI [3]: > 100000 nM | GI50 [4]: 1600 nM | TGI [4]: 3160 nM | GI50 [5]: 1730 nM | TGI [5]: 3260 nM | GI50 [6]: 2650 nM | TGI [6]: 7300 nM | GI50 [7]: 1200 nM | TGI [7]: 2980 nM | GI50 [8]: 1790 nM | TGI [8]: 3460 nM | GI50 [9]: 1600 nM | TGI [9]: 3240 nM | GI50 [10]: 1960 nM | TGI [10]: 4270 nM | GI50 [11]: 1020 nM | TGI [11]: 2290 nM | GI50 [12]: 1730 nM | TGI [12]: 3190 nM | GI50 [13]: 1930 nM | TGI [13]: 3690 nM | GI50 [14]: 1270 nM | TGI [14]: 2520 nM | GI50 [15]: 1450 nM | TGI [15]: 3420 nM | GI50 [16]: 1940 nM | TGI [16]: 3460 nM | GI50 [17]: 1940 nM | TGI [17]: 6340 nM | GI50 [18]: 1250 nM | TGI [18]: 2660 nM | GI50 [19]: 1830 nM | TGI [19]: 5300 nM | GI50 [20]: 1270 nM | TGI [20]: 2620 nM | GI50 [21]: 1480 nM | TGI [21]: > 100000 nM | GI50 [22]: 1660 nM | TGI [22]: 3150 nM | GI50 [23]: 1730 nM | TGI [23]: 3360 nM | GI50 [24]: 11500 nM | TGI [24]: 23800 nM | GI50 [25]: 1750 nM | TGI [25]: 3300 nM | GI50 [26]: 1330 nM | TGI [26]: 2750 nM | GI50 [27]: 1630 nM | TGI [27]: 3350 nM | GI50 [28]: 1630 nM | TGI [28]: 3310 nM | GI50 [29]: 1910 nM | TGI [29]: 3950 nM | GI50 [30]: 1160 nM | TGI [30]: 2930 nM | GI50 [31]: 2680 nM | TGI [31]: 9280 nM | GI50 [32]: 1610 nM | TGI [32]: 2980 nM | GI50 [33]: 1300 nM | TGI [33]: 2820 nM | GI50 [34]: 1560 nM | TGI [34]: 3020 nM | GI50 [35]: 1220 nM | TGI [35]: 2890 nM | GI50 [36]: 1590 nM | TGI [36]: 3760 nM | GI50 [37]: 472 nM | TGI [37]: > 100000 nM | GI50 [38]: 1290 nM | TGI [38]: 2690 nM | GI50 [39]: 13700 nM | TGI [39]: 27000 nM | GI50 [40]: 2890 nM | TGI [40]: 7180 nM | GI50 [41]: 1810 nM | TGI [41]: 3820 nM | GI50 [42]: 1750 nM | TGI [42]: 3150 nM | GI50 [43]: 1370 nM | TGI [43]: 3160 nM | GI50 [44]: 2400 nM | TGI [44]: 5410 nM | GI50 [45]: 1380 nM | TGI [45]: 2870 nM | GI50 [46]: 1710 nM | TGI [46]: 5010 nM
